# Test results taken from US11382888B2, “Combination of topical medications for the treatment of skin diseases and methods of use” (American University of Beirut, priority 2019, dated 2022).
# Legend:
# [1] = general statement, no test described; cited from earlier work
# [2] = system: patients with ARCI; assay: Left sided vs right sided trial of the lovastatin-cholesterol combination cream in ARCI patients; type: in vivo, human; set-up: Erythema / Total score: scale not given here; conditions: left side glycolic acid only, right side also combination cream
# Text: Each patient was given a severity score based on 5 criteria: (1) skin thickness and/or scaling; (2) pain, pruritus, and/or discomfort; (3) erythema; (4) impact of the condition on the ability to perform daily functions; and (5) the patient's subjective severity scoring, i.e., the patient's own assessment of the severity of the condition.
# Five patients applied the combination cream of lovastatin and cholesterol on the right side of the body only, while the glycolic acid was applied to both sides (patients 1, 2, 3, 4, and 6).
compound,measurement,setting,value
"CC(=O)N1CCN(c2ccc(OCC3COC(Cn4ccnc4)(c4ccc(Cl)cc4Cl)O3)cc2)CC1 (racemic) [Ketoconazole, 1-acetyl-4-[4-[[2-(2,4-dichlorophenyl)-2-[(1H-imidazol-1-yl)-methyl]-1,3-dioxolan-4-yl]methoxy]phenyl]piperazine]",solubility,[1],low solubility
"O=C(O)CO [glycolic acid, hydroxyacetic acid]",% change,"[2]; patient 1, at 2 months vs baseline total score",−5.4545%
same,Ability to perform daily functions,"[2]; patient 1, at 2 months",5
same,Erythema,"[2]; patient 1, at 2 months",9
same,Pain/pruritis/discharge,"[2]; patient 1, at 2 months",6
same,Patient severity scoring,"[2]; patient 1, at 2 months",17
same,Response,"[2]; patient 1, at 2 months",Mild
same,Skin thickness/scaling,"[2]; patient 1, at 2 months",15
same,Total score,"[2]; patient 1, at 2 months",52
same,% change,"[2]; patient 1, at 3 months vs baseline total score",−54.545%
same,Ability to perform daily functions/to move,"[2]; patient 1, at 3 months",2
same,Erythema,"[2]; patient 1, at 3 months",4
same,Pain/pruritis/discharge,"[2]; patient 1, at 3 months",2
same,Patient severity scoring,"[2]; patient 1, at 3 months",8
same,Skin thickness/scaling,"[2]; patient 1, at 3 months",9
same,Total score,"[2]; patient 1, at 3 months",25
same,% change,"[2]; patient 2, at 2 months vs baseline total score",−12%
same,Ability to perform daily functions,"[2]; patient 2, at 2 months",5
same,Erythema,"[2]; patient 2, at 2 months",6
same,Pain/pruritis/discharge,"[2]; patient 2, at 2 months",6
same,Patient severity scoring,"[2]; patient 2, at 2 months",17
same,Response,"[2]; patient 2, at 2 months",Mild
same,Skin thickness/scaling,"[2]; patient 2, at 2 months",10
same,Total score,"[2]; patient 2, at 2 months",44
same,% change,"[2]; patient 2, at 3 months vs baseline total score",−58%
same,Ability to perform daily functions/to move,"[2]; patient 2, at 3 months",2
same,Erythema,"[2]; patient 2, at 3 months",4
same,Pain/pruritis/discharge,"[2]; patient 2, at 3 months",4
same,Patient severity scoring,"[2]; patient 2, at 3 months",5
same,Skin thickness/scaling,"[2]; patient 2, at 3 months",6
same,Total score,"[2]; patient 2, at 3 months",21
same,% change,"[2]; patient 3, at 2 months vs baseline total score",−3.7037%
same,Ability to perform daily functions,"[2]; patient 3, at 2 months",3
same,Erythema,"[2]; patient 3, at 2 months",3
same,Pain/pruritis/discharge,"[2]; patient 3, at 2 months",3
same,Patient severity scoring,"[2]; patient 3, at 2 months",10
same,Response,"[2]; patient 3, at 2 months",Mild
same,Skin thickness/scaling,"[2]; patient 3, at 2 months",7
same,Total score,"[2]; patient 3, at 2 months",26
same,% change,"[2]; patient 3, at 3 months vs baseline total score",−40.7407%
same,Ability to perform daily functions/to move,"[2]; patient 3, at 3 months",1
same,Erythema,"[2]; patient 3, at 3 months",2
same,Pain/pruritis/discharge,"[2]; patient 3, at 3 months",2
same,Patient severity scoring,"[2]; patient 3, at 3 months",7
same,Response,"[2]; patient 3, at 3 months",Good
same,Skin thickness/scaling,"[2]; patient 3, at 3 months",4
same,Total score,"[2]; patient 3, at 3 months",16
same,% change,"[2]; patient 4, at 2 months vs baseline total score",−41.818%
same,Ability to perform daily functions,"[2]; patient 4, at 2 months",3
same,Erythema,"[2]; patient 4, at 2 months",9
same,Pain/pruritis/discharge,"[2]; patient 4, at 2 months",4
same,Patient severity scoring,"[2]; patient 4, at 2 months",8
same,Response,"[2]; patient 4, at 2 months",Good
same,Skin thickness/scaling,"[2]; patient 4, at 2 months",8
same,Total score,"[2]; patient 4, at 2 months",32
same,% change,"[2]; patient 4, at 3 months vs baseline total score",−65.455%
same,Ability to perform daily functions/to move,"[2]; patient 4, at 3 months",2
same,Erythema,"[2]; patient 4, at 3 months",4
same,Pain/pruritis/discharge,"[2]; patient 4, at 3 months",2
same,Patient severity scoring,"[2]; patient 4, at 3 months",5
same,Skin thickness/scaling,"[2]; patient 4, at 3 months",6
same,Total score,"[2]; patient 4, at 3 months",19
same,% change,"[2]; patient 6, at 2 months vs baseline total score",−7.353%
same,Ability to perform daily functions,"[2]; patient 6, at 2 months",10
same,Erythema,"[2]; patient 6, at 2 months",13
same,Pain/pruritis/discharge,"[2]; patient 6, at 2 months",8
same,Patient severity scoring,"[2]; patient 6, at 2 months",17
same,Response,"[2]; patient 6, at 2 months",Mild
same,Skin thickness/scaling,"[2]; patient 6, at 2 months",15
same,Total score,"[2]; patient 6, at 2 months",63
same,% change,"[2]; patient 6, at 3 months vs baseline total score",−10.2941%
same,Ability to perform daily functions/to move,"[2]; patient 6, at 3 months",10
same,Erythema,"[2]; patient 6, at 3 months",13
same,Pain/pruritis/discharge,"[2]; patient 6, at 3 months",7
same,Patient severity scoring,"[2]; patient 6, at 3 months",17
same,Response,"[2]; patient 6, at 3 months",Mild
same,Skin thickness/scaling,"[2]; patient 6, at 3 months",14
same,Total score,"[2]; patient 6, at 3 months",61
